Measured values reported in patent publication US5486596A, “Analogues of 8-D-homoarginine vasopressin” (Ceskoslovenska akademie ved, priority 1989, dated 1996).
Read-outs that look alike come from different tables or passages of the source. Bridge positions count the residues as written; N and C are the ends. Square brackets hold non-standard residues; d marks the D form. Peptide text beside a SMILES is read from it. dPhe(4-Et) = CCc1ccc(C[C@@H](N)C(=O)O)cc1; dPhe(4-Me) = Cc1ccc(C[C@@H](N)C(=O)O)cc1; Phe(4-Et) = CCc1ccc(C[C@H](N)C(=O)O)cc1; Phe(4-Me) = Cc1ccc(C[C@H](N)C(=O)O)cc1; d(hArg) = N=C(N)NCCCC[C@@H](N)C(=O)O; Mpa = O=C(O)CCS

Experiments:
rats [1] = details: for Uterotonic activity: agonistic activity, rat
despinalized male rats = details: for Pressoric activity: despinalized male rats
rats [2] = experiment: antidiuretic activity according to Burn, dDAVP as standard; assay type: in vivo; details: rat, relative to the standard dDAVP
Description: The biological activity of the peptides was tested on rats, namely: the uterotonic activity (agonistic and antagonistic) according to the Holton's method (Holtdon, J.: Brit. J. Pharmacol., 3,328, 1960) modified by Munsick (Endocrinology, 66, 451, 1960), the inhibitory activity being expressed as pA2 (Eggen et al.: J. Gen. Physiol., 56, 250, 1970), the pressoric activity was determined on despinalized male rats according to Krejci et al. (Brit. J. Pharm. Chemother., 30, 497, 1967) and the antidiuretic activity according to Burn (Burn et al.: Biol. Stand. Oxford Univ. Press, London, 1950) with [deaminol, D-arginine^8 ]vasopressin (dDAVP) used as the standard.

tPA = tPA activity in squirrel monkeys (fibrinolytic properties); assay type: in vivo; details: for tPA/%: squirrel monkeys, saline control = 100% (basal value)
Description: (§1) Compounds of the present invention ware evaluated for their ability to affect blood coagulation and fibrinolytic properties. The compounds were compared with [8-D-argenine]deamino vasopressin in squirrel monkeys. The findings of dissociated blood coagulation/fibrinolytic properties and the inhibitory properties are new and surprising properties for the series of vasopressin derived peptides.

FVIII = FVIII activity in squirrel monkeys (blood coagulation); assay type: in vivo; details: for FVIII/%: squirrel monkeys, saline control = 100% (basal value)
Description: as §1

[3] = inhibitory activity expressed as pA2, despinalized male rats
[4] = inhibitory (antagonistic) activity expressed as pA2, rat

COc1ccc(C[C@@H]2NC(=O)[C@@H](N)CSSC[C@@H](C(=O)N3CCC[C@H]3C(=O)N[C@H](CCCCNC(=N)N)C(=O)NCC(N)=O)NC(=O)[C@H](CC(N)=O)NC(=O)[C@H](CCC(N)=O)NC(=O)[C@H](Cc3ccccc3)NC2=O)cc1 [I, [2-O-methyltyrosine, 8-D-homoarginine]vasopressin]
Uterotonic activity, pA2 (rats [1]): 7.7

Cc1ccc(C[C@@H]2NC(=O)CCSSC[C@@H](C(=O)N3CCC[C@H]3C(=O)N[C@H](CCCCNC(=N)N)C(=O)NCC(N)=O)NC(=O)[C@H](CC(N)=O)NC(=O)[C@H](CCC(N)=O)NC(=O)[C@H](Cc3ccccc3)NC2=O)cc1 [IX, [Mpr^1, L-p-MePhe^2, D--Har^8] vasopressin] ([Mpa][Phe(4-Me)]FQNCP[d(hArg)]G-NH2; disulfide 1-6)
Pressoric activity, pA2 (despinalized male rats; rat, in vivo): 6.2 | Uterotonic activity, pA2 (rats [1]): 8.38

COc1ccc(C[C@@H]2NC(=O)CCSSC[C@@H](C(=O)N3CCC[C@H]3C(=O)N[C@H](CCCCNC(=N)N)C(=O)NCC(N)=O)NC(=O)[C@H](CC(N)=O)NC(=O)[C@H](CCC(N)=O)NC(=O)[C@H](Cc3ccccc3)NC2=O)cc1 [VI, [1-mercaptopropionic acid, 2-O-methyltyrosine 8-D-homoarginine]vasopressin]
Uterotonic activity, pA2 (rats [1]): 8.1

CCc1ccc(C[C@@H]2NC(=O)CCSSC[C@@H](C(=O)N3CCC[C@H]3C(=O)N[C@H](CCCCNC(=N)N)C(=O)NCC(N)=O)NC(=O)[C@H](CC(N)=O)NC(=O)[C@H](CCC(N)=O)NC(=O)[C@H](Cc3ccccc3)NC2=O)cc1 [VII, [Mpr^1, L-p-EtPhe^2, D--Har^8] vasopressin] ([Mpa][Phe(4-Et)]FQNCP[d(hArg)]G-NH2; disulfide 1-6)
Pressoric activity, pA2 (despinalized male rats; rat, in vivo): 6.2 | Uterotonic activity, pA2 (rats [1]): 8.0

CCc1ccc(C[C@H]2NC(=O)CCSSC[C@@H](C(=O)N3CCC[C@H]3C(=O)N[C@H](CCCCNC(=N)N)C(=O)NCC(N)=O)NC(=O)[C@H](CC(N)=O)NC(=O)[C@H](CCC(N)=O)NC(=O)[C@H](Cc3ccccc3)NC2=O)cc1 [VIII, [Mpr^1, D-p-EtPhe^2, D--Har^8] vasopressin] ([Mpa][dPhe(4-Et)]FQNCP[d(hArg)]G-NH2; disulfide 1-6)
Pressoric activity, pA2 (despinalized male rats; rat, in vivo): 6.35 | Uterotonic activity, pA2 (rats [1]): 8.63

Cc1ccc(C[C@H]2NC(=O)CCSSC[C@@H](C(=O)N3CCC[C@H]3C(=O)N[C@H](CCCCNC(=N)N)C(=O)NCC(N)=O)NC(=O)[C@H](CC(N)=O)NC(=O)[C@H](CCC(N)=O)NC(=O)[C@H](Cc3ccccc3)NC2=O)cc1 [X, [Mpr^1, D-p-MePhe^2, D--Har^8] vasopressin] ([Mpa][dPhe(4-Me)]FQNCP[d(hArg)]G-NH2; disulfide 1-6)
Uterotonic activity, pA2 (rats [1]): 8.68

[2-p-ethyl-D-phenylalanine, 8-D-homoarginine]vasopressin [III]
Pressoric activity, pA2 (despinalized male rats; [3]): 6.5 | Antidiuretic activity (rats [2]): < 0.1 % dDAVP | Uterotonic activity, pA2 (rats [1]; [4]): 8.15

[2-p-ethyl-L-phenylalanine, 8-D-homoarginine]vasopressin [II]
Pressoric activity, pA2 (despinalized male rats; [3]): 6.5 | Antidiuretic activity (rats [2]): < 0.1 % dDAVP | Uterotonic activity, pA2 (rats [1]; [4]): 7.40

[2-p-methyl-D-phenylalanine, 8-D-homoarginine]vasopressin
tPA/% (tPA): 65% | Pressoric activity (despinalized male rats): 0.04 IU/mg | Antidiuretic activity (rats [2]): < 0.1 % dDAVP | Uterotonic activity, pA2 (rats [1]; [4]): 6.85 | FVIII/% (FVIII): 55%

[2-p-methyl-L-phenylalanine, 8-D-homoarginine]vasopressin [IV]
tPA/% (tPA): 77% | Pressoric activity (despinalized male rats): 0.04 IU/mg | Antidiuretic activity (rats [2]): < 0.1 % dDAVP | Uterotonic activity, pA2 (rats [1]; [4]): 6.85 | FVIII/% (FVIII): 85%

[8-D-arginine] deamino vasopressin
effect on expression of tPA, in words (tPA; monkey, in vivo): increase | tPA/% (tPA): 138.9% | effect on expression of Factor VIII, in words (FVIII; monkey, in vivo): increase | FVIII/% (FVIII): 149%

[D--Har^8 ] vasopressin [reference compound]
Antidiuretic activity (rats [2]): ~ 1 % dDAVP | Uterotonic activity (rats [1]): 0.9 IU/mg

[Mpr^1, D--Har^8 ] vasopressin [reference compound]
tPA/% (tPA): 88% | Pressoric activity (despinalized male rats): 0.28 IU/mg | Antidiuretic activity (rats [2]): ~ 5 % dDAVP | Uterotonic activity (rats [1]): 0.8 IU/mg | FVIII/% (FVIII): 127%
